Measured values published in PMC12543283, “TastepepAI: An artificial intelligence platform for taste peptide de novo design” (PLOS Computational Biology, 2025).
Ends that are not written are not given here.

How the values were obtained:
[1] = Electronic tongue analysis (Taste-Sensing System SA 402B); parameters: unit not given here; settings: reference solution 30 mM KCl + 0.3 mM tartaric acid as baseline, first measurement excluded; for Umami: sensor AAE; for Umami / Bitter / Sweet: detection threshold 0, room temperature; for Umami / Bitter / Sour / Salty: four replicates; for Sour: detection threshold -13, room temperature; for Salty: detection threshold -6, room temperature; for Sweet: measured five times
Procedure: Taste characteristics were analyzed using the electronic tongue system E-tongue (Taste-Sensing System SA 402B, Intelligent Sensor Technology Co. Ltd., Japan). The system was equipped with five specific sensor probes for detecting sourness (CA0), saltiness (CT0), bitterness (C00), sweetness (GL1), and umami (AAE). Samples were tested at concentrations of 0.1 mg/mL and 1.0 mg/mL. Prior to experiments, sensors were activated by immersion in a reference solution (30 mM KCl and 0.3 mM tartaric acid) for 24 h. A 30 min self-diagnostic procedure was performed before each measurement to ensure data accuracy. The reference solution served both as a cleaning solution and standard solution for taste signal calibration. According to the manufacturer’s instructions, using the reference solution as baseline, the detection thresholds were set at −13 for sourness, −6 for saltiness, and 0 for other taste modalities. Two cleaning solutions were employed for electrode maintenance: (1) 30% ethanol solution containing 100 mM HCl for negative charge reference electrodes, and (2) 30% ethanol solution containing 100 mM KCl and 10 mM KOH for positive charge reference electrodes. All taste measurements were performed at room temperature with four replicates, except for sweetness which was measured five times. The first measurement data were excluded from analysis.

[2] = tested on: human bronchial epithelial cells (BEAS-2B)
Procedure: (§1) The cytotoxicity of 73 synthetic peptides was evaluated using four human cell lines: human pancreatic ductal epithelial cells (HPNE), human embryonic kidney cells (HEK293T), human umbilical vein endothelial cells (HUVEC), and human bronchial epithelial cells (BEAS-2B). When cell density reached 70% confluence, the complete culture medium was replaced with serum-free maintenance medium, and peptides were added at a final concentration of 100 μM for 36 h. Control groups received only serum-free maintenance medium without peptides. Cell proliferation was assessed using the CCK-8 assay kit (Solarbio, CA1210) according to the manufacturer’s instructions.

[3] = tested on: human embryonic kidney cells (HEK293T)
Procedure: as §1

[4] = tested on: human pancreatic ductal epithelial cells (HPNE)
[5] = tested on: human umbilical vein endothelial cells (HUVEC)

Substance	Umami ([1]; peptide 0.1 mg/mL)	Umami ([1]; peptide 1 mg/mL)	Bitter ([1]; sensor C00, peptide 0.1 mg/mL)	Bitter ([1]; sensor C00, peptide 1 mg/mL)	Sour ([1]; sensor CA0, peptide 0.1 mg/mL)	Sour ([1]; sensor CA0, peptide 1 mg/mL)	Salty ([1]; sensor CT0, peptide 0.1 mg/mL)	Salty ([1]; sensor CT0, peptide 1 mg/mL)	Sweet ([1]; sensor GL1, peptide 0.1 mg/mL)	Sweet ([1]; sensor GL1, peptide 1 mg/mL)	Average cell viability, BEAS-2B [2]	Cell viability, BEAS-2B, Data1 [2]	Cell viability, BEAS-2B, Data2 [2]	Cell viability, BEAS-2B, Data3 [2]	Average cell viability, HEK293T [3]	Cell viability, HEK293T, Data1 [3]	Cell viability, HEK293T, Data2 [3]	Cell viability, HEK293T, Data3 [3]	Average cell viability, HPNE [4]	Cell viability, HPNE, Data1 [4]	also measured
VPDELN [TaPep23]	1.53	-4.39	7.18	3.47	-3.15	11.00	-22.67	6.69	5.26	-4.58	102.53	109.87	92.32	105.38	90.54	91.61	84.89	95.11	99.63	105.82	Cell viability, HPNE, Data2 [4]: 109.52; Cell viability, HPNE, Data3 [4]: 83.56; Average cell viability, HUVEC [5]: 97.76; Cell viability, HUVEC, Data1 [5]: 98.19; Cell viability, HUVEC, Data2 [5]: 95.72; Cell viability, HUVEC, Data3 [5]: 99.39
AEDNSL [TaPep43]	1.07	-5.11	7.83	4.00	-1.87	12.46	-20.35	7.60	5.59	-3.45	108.94	119.14	93.72	113.96	98.86	96.72	102.11	97.76	110.25	117.40	Cell viability, HPNE, Data2 [4]: 99.83; Cell viability, HPNE, Data3 [4]: 113.51; Average cell viability, HUVEC [5]: 103.73; Cell viability, HUVEC, Data1 [5]: 104.42; Cell viability, HUVEC, Data2 [5]: 115.43; Cell viability, HUVEC, Data3 [5]: 91.33
IFGDD [TaPep57]	1.71	-5.02	7.29	3.08	-3.54	12.57	-21.64	9.94	6.75	-7.93	100.86	99.70	103.89	99.00	99.72	100.22	96.06	102.87	103.13	83.76	Cell viability, HPNE, Data2 [4]: 112.81; Cell viability, HPNE, Data3 [4]: 112.81; Average cell viability, HUVEC [5]: 100.24; Cell viability, HUVEC, Data1 [5]: 106.57; Cell viability, HUVEC, Data2 [5]: 103.38; Cell viability, HUVEC, Data3 [5]: 90.77
FNGVE [TaPep61]	3.14	-2.71	6.59	3.33	-7.21	6.60	-23.88	3.55	8.89	-2.71	99.57	95.41	109.57	93.72	98.80	99.65	96.91	99.84	94.34	84.66	Cell viability, HPNE, Data2 [4]: 82.36; Cell viability, HPNE, Data3 [4]: 116.01; Average cell viability, HUVEC [5]: 99.47; Cell viability, HUVEC, Data1 [5]: 89.49; Cell viability, HUVEC, Data2 [5]: 104.82; Cell viability, HUVEC, Data3 [5]: 104.10
ILEEQ [TaPep29]	1.81	-4.08	7.69	3.20	-3.61	10.60	-20.79	9.53	7.74	-5.49	114.56	114.56	111.96	117.15	100.41	100.88	96.44	103.91	96.81	101.03	Cell viability, HPNE, Data2 [4]: 96.44; Cell viability, HPNE, Data3 [4]: 92.95; Average cell viability, HUVEC [5]: 98.96; Cell viability, HUVEC, Data1 [5]: 93.24; Cell viability, HUVEC, Data2 [5]: 109.93; Cell viability, HUVEC, Data3 [5]: 93.72
AKDEKEL [TaPep1]	2.15	-3.64	10.96	3.53	-4.53	9.07	-19.14	13.72	6.22	-3.13	108.54	105.88	114.46	105.28	101.23	110.16	98.99	94.54	94.74	92.35	Cell viability, HPNE, Data2 [4]: 92.15; Cell viability, HPNE, Data3 [4]: 99.73; Average cell viability, HUVEC [5]: 97.71; Cell viability, HUVEC, Data1 [5]: 96.99; Cell viability, HUVEC, Data2 [5]: 94.60; Cell viability, HUVEC, Data3 [5]: 101.54
FTEELE [TaPep32]	1.89	-4.56	7.51	2.80	-3.82	11.60	-20.95	9.59	8.60	-6.23	106.88	104.99	104.59	111.07	100.73	105.14	99.56	97.48	103.23	117.80	Cell viability, HPNE, Data2 [4]: 110.72; Cell viability, HPNE, Data3 [4]: 81.16; Average cell viability, HUVEC [5]: 98.11; Cell viability, HUVEC, Data1 [5]: 111.20; Cell viability, HUVEC, Data2 [5]: 89.81; Cell viability, HUVEC, Data3 [5]: 93.32
LNGPQ [TaPep63]	1.41	-6.21	7.27	4.12	-2.72	15.39	-20.42	10.16	5.62	-5.33	103.52	114.46	93.02	103.09	99.12	94.35	104.86	98.14	97.14	82.16	Cell viability, HPNE, Data2 [4]: 94.94; Cell viability, HPNE, Data3 [4]: 114.31; Average cell viability, HUVEC [5]: 95.61; Cell viability, HUVEC, Data1 [5]: 91.41; Cell viability, HUVEC, Data2 [5]: 96.35; Cell viability, HUVEC, Data3 [5]: 99.07
